Earlier results, collected in patent US20250268950A1, “PRENATAL SUPPLEMENT” (Arizona Board of Regents on Behalf of Arizona State …, priority 2021, published 2025).
Read-outs that look alike come from different tables or passages of the source. One block for each molecule: values may come before it.

Assays:
[1] = test system: non-pregnant women with polycystic ovary syndrome; diabetes
[2] = test system: pregnant women and their infants; conditions: prenatal with vitamin E and dietary intake in upper half (12.6-33.8 mg/day)
[3] = for plasma level as % of level at 2500 mg: non-pregnant women
[4] = test system: pregnant women and their infants; conditions: maternal blood levels in the highest quartile; 397 ASD, 1034 controls
[5] = diabetes, meta-analysis of 22 randomized controlled trials

Molecule: [Cr] [Chromium]
pregnancy rate ([1]; 200 i.g for eight weeks, non-pregnant women with polycystic ovary syndrome (vs. 3%)): 17%
atypical depression ([1]; 400-600 i.g/day): helpful for atypical depression
adverse events [1, 5]: no difference in the adverse events between chromium and placebo
glycemic control and lipids [1, 5]: improved glycemic control, reduced triglycerides, and increased HDL-C
fasting plasma glucose and insulin levels (pregnant women; 4 i.g/kg, 24 women with gestational diabetes, U.S.): significantly improved their fasting plasma glucose and insulin levels

risk of congenital heart defects, times higher [2]: 5-9
increase of vitamin E levels by third trimester ([3]; 30 IU, US): 50%
Molecule: Vitamin E
risk of placental abruption, RR (pregnant women; Cochrane, alpha-tocopherol 200-800 IU with other supplements, 7 trials, 14,922 participants): 0.64
rate of preterm births (infants; about 450 mg/day (about 675 IU/day), non-randomized (vs. 9.3%)): 6.6%
rate of preterm births in women with preeclampsia (infants; approximately 200-600 mg/day (vs. 10.4% unsupplemented)): 8.6%
Tolerable Upper Limit for Pregnant Women (Table 12): 1000 mg

Molecule: chromium picolinate
comparison of chromium forms [1, 5]: the form with the greatest effects on glucose and triglyceride levels

Molecule: C=C1CCC(O)CC1=CC=C1CCCC2(C)C1CCC2C(C)CCCC(C)C (centres unmarked) [Vitamin D]
reduction of risk of preeclampsia (pregnant women; 400-600 IU/day during pregnancy, after confounder adjustment): 29%
rate of maternal secondary hyperparathyroidism (pregnant women; 800 IU/day (from 27%)): 10%
asthma/recurrent wheeze at 0-3 yrs, adjusted OR (infants; combined analysis of two studies, 2400 IU/day and 4000 IU/day): 0.74
blood levels of vitamin D ([3]; 2000-4000 IU/day): higher blood levels than just 400 IU/day
Tolerable Upper Limit for Pregnant Women (Table 12): 4000 IU

Molecule: O=C1O[C@H]([C@@H](O)CO)C(O)=C1O [Vitamin C]
risk of term PROM, RR (pregnant women; Cochrane meta-analysis, vitamin C alone, 170 participants): 0.55
risk of preterm PROM, RR (pregnant women; Cochrane meta-analysis, vitamin C alone, 1282 participants, five studies): 0.66
rate of urinary tract infections during pregnancy (pregnant women; Mexico, 100 mg/day (vs. 29%)): 13%
hospitalization during pregnancy (pregnant women; Uganda, 400 mg (vs. 28% for placebo (so in the source))): 42%
infant pulmonary function and wheezing (infants; 500 mg/day): improved infant pulmonary function and significantly decreased wheezing through age 1 year
maintenance of vitamin C concentrations ([3]; 100 mg supplementation): enough to maintain a constant leukocyte concentration (storage) of vitamin C, but not enough to maintain plasma concentrations
plasma level as % of level at 2500 mg ([3]; steady-state 100 mg/day): approximately 79%
plasma level as % of level at 2500 mg ([3]; steady-state 200 mg/day): ~88%
plasma level as % of level at 2500 mg ([3]; steady-state 400 mg/day): ~95%
plasma level as % of level at 2500 mg ([3]; steady-state 1000 mg/day): ~97%
Tolerable Upper Limit for Pregnant Women (Table 12): 2000 mg

risk of ASD, OR [4]: 1.84
Molecule: [Mn+2] [Manganese]
Tolerable Upper Limit for Pregnant Women (Table 18): 11 mg

magnesium blood levels ([3]; 345 mg/day): enough to keep magnesium levels stable
Molecule: [Mg] [Magnesium]
rate of pregnancy-induced hypertension (pregnant women; Angola and China studies combined, 201 participants (vs. 21% placebo)): 4%
rate of edema (pregnant women; Angola study (vs. 58%)): 24%
perinatal and maternal composite outcome (infants; 300 mg/day of elemental magnesium, Brazil): did not find any effect on perinatal composite outcome
preterm birth, RR (infants; metanalysis of six RCT's, 3068 pregnant women): 0.58
tolerability (supplementation studies, 184-500 mg/day): well-tolerated

Molecule: O[C@H]1[C@H](O)[C@@H](O)[C@H](O)[C@@H](O)[C@H]1O [Inositol, Myo-inositol]
gestational diabetes (pregnant women; 2000 mg/day, 223 overweight, non-obese pregnant women): significant decrease in gestational diabetes compared to placebo
gestational diabetes (pregnant women; 4000 mg/day, women at risk of gestational diabetes (vs. 25%)): 11%
gestational diabetes (pregnant women; 4 grams per day, at risk women): greatly reduced gestational diabetes (GD)
macrosomia (infants; 4000 mg/day, women at risk of gestational diabetes (vs 5.3%)): 2.1%
preterm birth (infants; 4000 mg/day, women at risk of gestational diabetes (vs. 7.6%)): 3.4%
large for gestational age (infants; 4000 mg/day, women at risk of gestational diabetes (vs. 8.9%)): 4.8%
side effects (high doses up to 18 grams per day): Only some mild diarrhea
side effects (less than 6 grams per day): zero side effects
